# Results reported in ChEMBL document CHEMBL5226333, “Targeting Autophagy-Related Epigenetic Regulators for Cancer Drug Discovery” (J Med Chem, 2021).
# What was measured:
# [1] = target: Histone-lysine N-methyltransferase EZH2 (Homo sapiens, UniProt Q15910); assay: Inhibition of EZH2 (unknown origin) in PRC2 complex using H3 (1 to 24 residues) and 3H-SAM as substrate incubated for 1 hrs by Scintillation proximity assay
# [2] = Cmax in Swiss albino mouse plasma at 50 mg/kg,po and measured after 24 hrs; format: ADME, organism-based; parameters: time 24 hrs, dose 50 mg/kg, route po; conditions: in vivo
# [3] = Inhibition of GST-tagged […] human GLP (610 to 917 residues) methylation activity expressed in Escherichia coli BL21 assessed as reduction in H3K9me3 level using H3(1 to 20 residues)-cys-biotin and SAM as substrate incubated for 60 mins by Dissociation enhanced lanthanide fluoro-immuno assay
# Histone-lysine N-methyltransferase EZH2, sequence (Q15910 whole entry, the tested form may be a part): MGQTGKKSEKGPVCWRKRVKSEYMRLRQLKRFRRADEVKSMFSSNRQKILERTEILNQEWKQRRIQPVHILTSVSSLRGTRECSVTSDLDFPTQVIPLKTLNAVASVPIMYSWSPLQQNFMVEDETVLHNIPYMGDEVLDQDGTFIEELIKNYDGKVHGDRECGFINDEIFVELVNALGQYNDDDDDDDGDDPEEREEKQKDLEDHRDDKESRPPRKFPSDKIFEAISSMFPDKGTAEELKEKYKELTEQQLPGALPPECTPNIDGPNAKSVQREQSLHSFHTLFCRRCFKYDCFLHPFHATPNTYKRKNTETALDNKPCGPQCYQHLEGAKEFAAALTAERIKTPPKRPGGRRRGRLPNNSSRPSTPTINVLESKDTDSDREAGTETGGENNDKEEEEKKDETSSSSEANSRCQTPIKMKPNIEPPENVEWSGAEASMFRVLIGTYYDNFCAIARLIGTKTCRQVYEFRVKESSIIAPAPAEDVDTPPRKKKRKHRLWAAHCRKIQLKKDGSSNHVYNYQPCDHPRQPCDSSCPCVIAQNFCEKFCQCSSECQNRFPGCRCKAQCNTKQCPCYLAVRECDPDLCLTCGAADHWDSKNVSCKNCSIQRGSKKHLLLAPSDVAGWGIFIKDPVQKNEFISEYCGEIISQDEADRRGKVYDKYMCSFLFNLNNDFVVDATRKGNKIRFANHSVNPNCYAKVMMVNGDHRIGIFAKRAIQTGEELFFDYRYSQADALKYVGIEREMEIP
IC50 [1] [µM],Cmax [2] [µM],IC50 [3] [µM],Compound
< 0.01,4.7,–,CCCc1cc(C)[nH]c(=O)c1CNC(=O)c1cc(-c2ccc(N3CCN(C(C)C)CC3)nc2)cc2c1cnn2C(C)C
–,–,38,COc1cc2nc(N3CCCN(C)CC3)nc(NC3CCN(Cc4ccccc4)CC3)c2cc1OC
